Where a chain is given by its changes, count along the chain named. Like-named read-outs stand apart in the source and are kept apart here.
Key:
Format in all cases: biochemical
[1] = target: T1, wild-type mouse Core 2 GlcNAcT1 (Mus musculus, UniProt Q09324, H362D/H420R/R88W/S191T/T260A); assay: Activity of stored recombinant enzyme after addition of reducing agents; conditions: following storage of expressed and purified recombinant enzyme
T1 construct: made in house; host or cells: COS-7 or CHO-S cells, secreted into the culture supernatant, purified on anti-FLAG M1 beads
T1 sequence (Q09324 34-428 R88W/S191T/T260A/H362D/H420R): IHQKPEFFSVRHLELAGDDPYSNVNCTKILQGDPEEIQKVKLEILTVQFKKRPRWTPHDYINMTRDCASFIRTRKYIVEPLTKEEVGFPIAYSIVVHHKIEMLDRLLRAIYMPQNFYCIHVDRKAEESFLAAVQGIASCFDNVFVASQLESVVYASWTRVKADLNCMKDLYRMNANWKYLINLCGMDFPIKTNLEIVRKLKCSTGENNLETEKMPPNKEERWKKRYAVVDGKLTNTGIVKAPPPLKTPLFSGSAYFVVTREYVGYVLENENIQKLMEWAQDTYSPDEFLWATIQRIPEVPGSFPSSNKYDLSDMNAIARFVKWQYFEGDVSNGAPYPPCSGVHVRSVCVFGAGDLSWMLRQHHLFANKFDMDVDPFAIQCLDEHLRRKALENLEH
Source text: (§1) Iodoacetamide, 5,5′-dithiobis(2-nitrobenzoic acid) (DTNB), and N-ethylmaleimide causes inhibition of wild-type human and mouse Core 2 GlcNAcT1s. […] The blocking of this residue by oxidation, alkylation, or heavy metal binding causes inhibition of the enzyme.

[2] = target: T2, wild-type human Core 2 GlcNAcT1 (Homo sapiens, UniProt Q02742, I152V); assay: as above; conditions: following storage of expressed and purified recombinant enzyme
T2 construct: S-tag (N, cleaved yes); made in house
T2 sequence (Q02742 37-428 I152V): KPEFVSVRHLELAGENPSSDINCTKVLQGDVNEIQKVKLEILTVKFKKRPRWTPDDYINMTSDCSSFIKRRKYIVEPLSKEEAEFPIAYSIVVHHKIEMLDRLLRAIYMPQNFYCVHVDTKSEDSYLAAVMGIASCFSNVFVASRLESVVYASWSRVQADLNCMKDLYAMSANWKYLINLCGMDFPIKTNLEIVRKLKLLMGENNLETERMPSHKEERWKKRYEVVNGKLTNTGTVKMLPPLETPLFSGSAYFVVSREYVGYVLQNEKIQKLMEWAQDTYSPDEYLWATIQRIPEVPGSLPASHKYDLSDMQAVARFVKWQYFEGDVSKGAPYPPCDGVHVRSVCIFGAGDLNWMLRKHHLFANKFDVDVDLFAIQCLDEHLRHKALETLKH
Source text: as §1

[3] = target: T3, wild-type mouse Core 2 GlcNAcT1 (Mus musculus, UniProt Q09324); assay: Effects of sulfhydryl reagents and heavy metals on enzyme activity (% activity); conditions: 37° C., 2.0 hours, concentrations listed on FIG. 1
T3 construct: made in house; host or cells: COS-7 or CHO-S cells, secreted into the culture supernatant, purified on anti-FLAG M1 beads
T3 sequence (Q09324 34-428 R88W/S191T/T260A/H362D/H420R): T1 sequence (Q09324 34-428 R88W/S191T/T260A/H362D/H420R)
Description: (§2) Wild-type and C217S, human and mouse, Core 2 GlcNAcT1s were dissolved in an aqueous solution containing 30 mM 2-morpholinoethanesulfonic acid (MES) buffer (pH 6.7) and 1.0 mg/ml bovine serum albumin (BSA). Iodoacetamide (IAA), 5,5′-dithiobis(2-nitrobenzoic acid) (DTNB), N-ethylmaleimide (NEM), HgCl2 and ZnSO4 were added at the concentrations listed on FIGS. 1 and 2. 1.0 mM UDP-GlcNAc, 0.50 mM Gal(β1-3)GalNAcα-pnp, (3H)UDP-GlcNAc (0.50 μCi) and 30 mM MES buffer (pH 6.7) were added as well. The solutions were incubated at 37° C. for 2.0 hours. The (^3H)UDP-GlcNAc and (^3H)GlcNAc(β1-6)Gal(β1-3)GalNAcα-pnp were separated by solid-phase extraction and the DPM of (^3H)Gal(β1-3) GlcNAc(β1-6)GalNAcα-pnp were counted by liquid scintillation. A solution containing all components with exception of enzymes was prepared to measure background levels. The % activity was calculated as follows: (DPMinhibitor−DPMbackground)/(DPMcontrol−DPMbackground)*100. All assays were performed in duplicate. The results are plotted in FIGS. 1 and 2.

[4] = target: T4, C217S human Core 2 GlcNAcT1 (Homo sapiens, UniProt Q02742, C217S); assay: as above; conditions: relatively high concentrations (FIG. 2), 37° C., 2.0 hours
T4 construct: S-tag (N, cleaved yes); made in house
T4 sequence (Q02742 37-428 C217S): T2 sequence (Q02742 37-428 I152V) with V116I, C181S
Description: as §2

[5] = target: T5, C217S mouse Core 2 GlcNAcT1 (Mus musculus, UniProt Q09324, C217S); assay: as above; conditions: relatively high concentrations (FIG. 1), 37° C., 2.0 hours
T5 construct: made in house; host or cells: CHO-S or COS-7 cells, secreted, purified on anti-FLAG M1 beads
T5 sequence (Q09324 with tags, fused parts or gaps R88W/S191T/C217S/T260A/H362D/H420R): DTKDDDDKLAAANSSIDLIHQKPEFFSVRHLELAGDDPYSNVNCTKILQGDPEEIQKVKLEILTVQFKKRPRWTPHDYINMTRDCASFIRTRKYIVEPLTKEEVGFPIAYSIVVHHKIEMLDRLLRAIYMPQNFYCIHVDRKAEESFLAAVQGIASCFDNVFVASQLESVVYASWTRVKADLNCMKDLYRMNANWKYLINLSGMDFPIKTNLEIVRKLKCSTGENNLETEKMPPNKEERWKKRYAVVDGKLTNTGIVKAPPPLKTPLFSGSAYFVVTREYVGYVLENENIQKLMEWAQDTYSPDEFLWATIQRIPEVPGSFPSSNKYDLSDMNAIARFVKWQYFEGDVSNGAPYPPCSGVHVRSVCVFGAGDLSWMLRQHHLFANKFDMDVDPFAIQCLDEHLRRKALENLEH
Description: as §2

[6] = target: T2, wild-type human Core 2 GlcNAcT1; assay: as above; conditions: 37° C., 2.0 hours, concentrations listed on FIG. 2
Description: as §2

[7] = target: T4, C217S human Core 2 GlcNAcT1; assay: Kinetic characterization assays (standard enzyme assay with titrated substrate or product); conditions: for inhibitory potential of the reaction product, C217S compared with wild-type: human enzymes, titrated product in standard assay; for Km: C217S human enzyme
Description: (§3) Standard enzyme assays for wild-type and mutant (217Cys→Ser) Core 2 GlcNAcT1 were carried out in a 30 μl solution containing 30 mM 2-morpholinoethanesulfonic acid (MES) buffer (pH 6.7), 1.0 mM UDP-GlcNAc (donor substrate), 1.0 μCi UDP-6-[3H]GlcNAc, 0.50 mM (Galβ1-3)GalNAcα-pNp (acceptor substrate or AS), 1 mg/ml BSA, and 15-25 μU (1 unit=1 micromole/min) per assay of recombinant Core 2 GlcNAcT1 protein. The reaction was incubated for 2.0 hours at 37° C. and stopped by the addition of 460 μl of water. Reactions were frozen at −20° C. if they were not processed immediately. The reaction product Galβ1,3 [^3H]GlcNAc(β1,6)GalNAcα-pNp was separated from unreacted UDP-6[^3H]GlcNAc by solid phase extraction using Waters Sep-Pak columns. Samples were eluted from the column with ethanol, added to 10 ml of scintillation fluid and radioactivity (DPM) was determined.
(§4) Km values were determined by running the standard assay conditions with the exception of the titration of the donor substrate UDP-GlcNAc concentration (for Km,DS) or AS concentration (for Km,AS). The IC50 values for the products UDP and GlcNAc(β1-6)Gal(β1-3)GalNAcα-pNp were determined by running the standard assay conditions and adding titrated product. The mechanism was determined by titrating both donor and acceptor substrates at the same time.

[8] = target: T5, C217S mouse Core 2 GlcNAcT1; assay: as above; conditions: for inhibitory potential of the reaction product, C217S compared with wild-type: mouse enzymes, titrated product in standard assay
Description: as §3, §4

[9] = target: T1, wild-type mouse Core 2 GlcNAcT1; assay: as above
Description: as §3, §4

[10] = target: T2, wild-type human Core 2 GlcNAcT1; assay: as above
Description: as §3, §4

[11] = target: T3, wild-type mouse Core 2 GlcNAcT1; assay: as above; conditions: Ordered Bi Bi mechanism, read-out: KD for the donor substrate
Description: as §3, §4

[12] = acceptor substrate titrated, read-out: Km value for the acceptor substrate
[13] = donor substrate titrated, read-out: Km value for the donor substrate

Compound | inhibition of enzyme activity [3] | inhibition of enzyme activity [4] | inhibition of enzyme activity [5] | inhibition of enzyme activity [6] | other results
O[C@@H](CS)[C@@H](O)CS (racemic) [DTT, 1,4-dithiothreitol] |  |  |  |  | change of enzyme activity after addition of reducing agent [1]: increase; change of enzyme activity after addition of reducing agent [2]: increase
O=C(O)c1cc(SSc2ccc([N+](=O)[O-])c(C(=O)O)c2)ccc1[N+](=O)[O-] [DTNB, 5,5′-dithiobis(2-nitrobenzoic acid)] | inhibition | not inhibited | not inhibited | inhibition | 
CC(=O)N[C@H]1[C@H](OC[C@H]2O[C@H](Oc3ccc([N+](=O)[O-])cc3)[C@H](NC(C)=O)[C@@H](O[C@@H]3O[C@H](CO)[C@H](O)[C@H](O)[C@H]3O)[C@H]2O)O[C@H](CO)[C@@H](O)[C@@H]1O [Gal(β1-3) GlcNAc(β1-6)GalNAcα-pNp] |  |  |  |  | inhibitory potential of the reaction product, C217S compared with wild-type [7]: the same for both enzymes; inhibitory potential of the reaction product, C217S compared with wild-type [8]: the same for both enzymes
CC(=O)N[C@H]1[C@@H](Oc2ccc([N+](=O)[O-])cc2)O[C@H](CO)[C@H](O)[C@@H]1O[C@@H]1O[C@H](CO)[C@H](O)[C@H](O)[C@H]1O [Gal(β1-3)GalNAcα-pNp] |  |  |  |  | Km [7, 12]: 320 µM; Km ([8]; C217S mouse enzyme, acceptor substrate titrated, read-out: Km value for the acceptor substrate): 130 µM; Km [9, 12]: 150 µM; Km [10, 12]: 340 µM
[Cl][Hg][Cl] [Hg^2+, HgCl2] | inhibit | insensitive | did not affect | inhibit | 
NC(=O)CI [Iodoacetamide] | inhibition | not inhibited | not inhibited | inhibition | 
CCN1C(=O)C=CC1=O [N-ethylmaleimide] | inhibition | not inhibited | not inhibited | inhibition | 
O=c1ccn([C@@H]2O[C@H](COP(=O)(O)OP(=O)(O)O)[C@@H](O)[C@H]2O)c(=O)[nH]1 [UDP] |  |  |  |  | inhibitory potential of the reaction product, C217S compared with wild-type [7]: the same for both enzymes; inhibitory potential of the reaction product, C217S compared with wild-type [8]: the same for both enzymes
O=S(=O)([O-])[O-].[Zn+2] [Zn^2+, ZnSO4] | inhibit | insensitive to Hg^2+ only | did not affect | inhibit | 
uridine diphospho-N-acetylglucosamine [UDP-GlcNAc] |  |  |  |  | Kd [11]: 110 µM; Km [7, 13]: 1100 µM; Kd ([8]; C217S mouse enzyme, Ordered Bi Bi mechanism, read-out: KD for the donor substrate): 110 µM; Km ([8]; C217S mouse enzyme, donor substrate titrated, read-out: Km value for the donor substrate): 1500 µM; Km [9, 13]: 1500 µM; Km [10, 13]: 1200 µM

— patent US20050142574A1, “Mutants of core 2 B-1, 6-N-acetylglycosaminyltransferase” (Seikagaku Corporation and Glycodesign Holdings Ltd., priority 2003, published 2005)
